According to US12582719B2, “Chimeric compounds and methods of managing neurological disorders or conditions” (Emory University, priority 2019, dated 2026):
“Also recorded” adds a separate entry of the source.

Assays:
[1] = test system: antidepressant-like behavioral effects; details: behaviorally inactive dose of ACY-738 co-administered with sub-effective dose of citalopram; cited from earlier work
[2] = test system: LPS-induced depressive behavior (immobility); assay: Tail suspension test (TST) with lipopolysaccharide-induced depressive behavior; type: in vivo, mice
Description: Randomly selected NIH Swiss adult male mice (7 weeks, ˜30 g) were divided into three groups of 5 mice in per group. LPS (Lipopolysaccharide) was administered as does 850 μg/kg in saline 100 μL intraperitoneally. After 1 h, chimeric compound (HM3a-R, FIG. 2A) or belinostat (Spectrum Pharmaceutical, Irvine, CA) was injected into mice as does 75 mg/kg in vehicle 100 μL intraperitoneally. Then the compounds were dissolved in 10% dimethyl sulfoxide and 90% vehicle mixture. Vehicle formulation is 45% (2-hydroxypropyl)-β-cyclodextrin solution. After 6 h and 24 h, tail suspension test was performed. Every tail-hanged mouse was video-recorded for 6 minutes. […] The tail suspension test (TST) was performed to assess antidepressant-like activity using lipopolysaccharide (LPS) which is an endotoxin that causes depressive behavior in mice. The antidepressant activities of HM3a-R and belinostat were compared with a control.

[3] = test system: antidepressant-like activity in animal models; assay: In vivo screening in animal models (antidepressant-like activity); details: compared with PDX-101 (belinostat)
[4] = test system: immobility in forced swim test; assay: Forced swimming test (FST); type: in vivo, mice; details: for improvement in forced-swim test (antidepressant-like activity): C57BL female mice, 6 h after injection, versus control
Description: The FST experiment was performed twice, the first experiment comparing the control group and the HM3a-R group, and the second experiment comparing the control group and the belinostat group. In the first FST, randomly selected C57BL adult female mice (6 weeks, 20 g) were divided into two groups of eight mice per group. And the second FST, randomly selected C57BL adult female mice (6 weeks, 20 g) were divided into two groups of five mice per group. Chimeric compounds, HM3a-R (FIG. 2A) was dissolved in 10% dimethyl sulfoxide and 90% vehicle mixture. Vehicle formulation is 45% (2-hydroxypropyl)-β-cyclodextrin solution. Then, HM3a-R or belinostat as dose 75 mg/kg or vehicle (for control) was injected into mice with 100 μL volume intraperitoneally. After 6 h, two 3-liter beakers were filled approximately with 2 L water at 25+/-0.5 degrees Celsius. Camcorder was placed, directly across from two beakers. Each pair of mice (i.e., one control mouse and one treated mouse) was placed into each beaker. Every trial was video recorded in this manner for 10 minutes. While the beakers were adjacent to each other, they were enclosed by cardboard boxes. The immobile times (between 2 and 8 minutes of 10-minute trial) for each pair of mice were counted by the person who was blinded to the identities of the control and treated mice pairs.

[5] = test system: carrageenan-induced paw edema; assay: Carrageenan-induced paw edema model; details: in vivo
[6] = test system: histone H4 deacetylation; assay: In vitro HDACI activity test (western blot, acetylated histone H4); type: cell-based; details: 9 L rat glioma cell line; for histone H4 acetylation: 5 μM, western blot
Description: The HDACI activity chimeric compounds were tested by western blot using a specific antibody against acetylated histone H4, and 9 L rat glioma cell line. the inhibitory activity of HM3a-R was analyzed at different concentrations (1 μM or 5 μM) on histone H4 deacetylation, compared with established HDACi, entinostat, (pyridin-3-yl)methyl-4-(2-aminophenylcarbamoyl)benzylcarbamate, MS-275 (1 μM or 5 μM) as positive controls.

[7] = Cellular toxicity; type: cell-based
[8] = test system: xylene-induced ear edema; assay: Xylene-induced mouse ear edema test; type: in vivo, mice; details: for anti-inflammation effect compared with the control group against xylene-induced ear edema: 10 mg/kg intraperitoneally, C57BL female mice, 2 h after xylene
Description: Randomly selected C57BL adult female mice (6 weeks, ˜20 g) were divided into three groups of five mice in per group. Chimeric compounds (HM3a-R, HM3a-S, FIG. 2A) were dissolved in 10% dimethyl sulfoxide and 90% vehicle mixture. Vehicle formulation is 45% (2-hydroxypropyl)-β-cyclodextrin solution. And then, the compounds or vehicle were injected into mice as does 10 mg/kg and injection volume 100 μL intraperitoneally. After 30 min, mice treated 30 μL of xylene on the anterior and posterior surfaces of the right ear lobe, the left ear was considered as control. Two hours later, mice were sacrificed by using CO2 gas and both ears were cut off by using a cork borer with a diameter of 7 mm and weighed and the percentage of ear edema was calculated based on the weight of another ear without xylene.

[9] = test system: depressive symptoms among GBM patients; assay: Clinical trial of vorinostat in recurrent glioblastoma, depression assessed by IDS-SR; type: in vivo, human
Description: A clinical trial was performed to evaluate vorinostat for the treatment of recurrent glioblastomas (GBM). Among the pleiotropic effects of HDAC inhibitors is the ability to attenuate inflammation, an action seen at concentrations lower than those required to slow cancer cell growth. GBM is frequently associated with neuroinflammation, which is thought to have pro-tumorigenic effects. […] Such changes are associated with recruitment of macrophages along a hypoxia-mediated chemotactic gradient. Macrophages recruited to hypoxic sites exert tumor-promoting effects through the expression of genes with mitogenic, angiogenic, and migration/invasion stimulating properties. Abrogating inflammatory changes associated with GBM might reduce or eliminate access to these tumor-promoting effects. Another intriguing effect of HDACis as anticancer agents might be their mood-enhancing, potentially anti-depressant, properties. In mice, decreased histone acetylation in key mood-relevant genes was found following chronic social defeat stress, a mouse model of depression. […]
During the clinical trial, levels of depression were assessed using the Inventory of Depressive Symptomatology-Self Report (IDS-SR) to determine whether vorinostat alters the severity of depressive symptoms among GBM patients. […]

[10] = 75 mg/kg intraperitoneally, LPS 850 μg/kg, NIH Swiss male mice

SMILES: O=C(NO)c1cnc(NC2(c3ccccc3)CC2)nc1 [ACY-738]
- effects comparable to a higher dose of citalopram administered alone [1]: ~40 fold

SMILES: COC(=O)[C@]1(c2ccc(Cl)c(Cl)c2)C[C@H]1CNCc1ccc(C(=O)NO)cc1 [HM3a-R, (1R,2R)-methyl-1-(3,4-dichlorophenyl)-2-(((4-(hydroxycarbamoyl)benzyl)amino)methyl) cyclopropane-1-carboxylate]
- duration of immobility in TST at 6 h [2, 10]: significantly reduced duration of immobility; also recorded: reduction in immobility
- duration of immobility in TST at 24 h ([2]; 75 mg/kg intraperitoneally, LPS 850 μg/kg, NIH Swiss male mice, 24 h): as effective as belinostat; also recorded: reduction in immobility
- onset of antidepressant action in TST versus belinostat ([2]; P<0.01, n=5): faster onset of antidepressant action
- antidepressant-like activity and onset time in animal models [3]: excellent antidepressant-like activity and fast onset time
- duration of immobility in FST ([4]; 75 mg/kg intraperitoneally, 6 h, P<0.05): significantly less duration of immobility
- improvement in forced-swim test (antidepressant-like activity) ([4]; 75 mg/kg intraperitoneally): 23%
- antidepressant-like activity in FST relative to belinostat ([4]; 23% vs. 12%): almost two-fold
- effectiveness against carrageenan-induced paw edema, comparison of enantiomers [5]: more effective
- histone H4 acetylation [6]: increased histone H4 acetylation
- cellular toxicity [7]: without cellular toxicity
- anti-inflammation effect compared with the control group against xylene-induced ear edema [8]: 48%
- effectiveness against ear inflammation, comparison of enantiomers ([8]; FIG. 3): more effective than HM3a-S

SMILES: COC(=O)[C@@]1(c2ccc(Cl)c(Cl)c2)C[C@@H]1CNCc1ccc(C(=O)NO)cc1 [HM3a-S, (1S,2S)-methyl-1-(3,4-dichlorophenyl)-2-(((4-(hydroxycarbamoyl)benzyl)amino)methyl) cyclopropane-1-carboxylate]
- anti-inflammation effect compared with the control group against xylene-induced ear edema [8]: 23%

SMILES: Nc1ccccc1NC(=O)c1ccc(CNC(=O)OCc2cccnc2)cc1 [MS-275, (pyridin-3-yl)methyl-4-(2-aminophenylcarbamoyl)benzylcarbamate]
- inhibition of histone H4 deacetylation, comparison ([6]; 1 μM and 5 μM): higher inhibitions than HM3a-R
- histone H4 acetylation [6]: increased histone H4 acetylation

SMILES: O=C(/C=C/c1cccc(S(=O)(=O)Nc2ccccc2)c1)NO [belinostat, reference compound]
- duration of immobility in TST at 6 h [2, 10]: didn't show any effect
- improvement in forced-swim test (antidepressant-like activity) ([4]; 75 mg/kg intraperitoneally): 12%

SMILES: O=C(CCCCCCC(=O)Nc1ccccc1)NO [vorinostat]
- GBM patients with improved IDS-SR scores ([9]; 7 days of vorinostat treatment): 67%
- side effect ([9]; most patients on treatment for more than 3 weeks): fatigue
